Measured values reported in article PMC11272584 (Nature Metabolism, 2024).
Substitutions are numbered along the chain they refer to. Names may count otherwise. Where two headings read alike, the source gives them in different places. Each block holds one molecule with its values, some of them ahead of it.

What was measured:
[1] = tested on: GIPR W90Lfs*17; assay: cAMP accumulation; assay type: cell-based, human; details: W90Lfs*; HEK293; GIP(1–42) 1 pM–100 nM, 30 min 37 °C; mean of n = 5
Procedure: (§1) HEK293 (CRL-1573, American Type Culture Collection) and β-arrestin 1/2 knockout cells, generated from HEK293A[48], were used for cAMP measurement, homologues competition binding and β-arrestin 2 recruitment. For the internalization assay, endosomal signalling and basal receptor localization experiments, HEK293A (R70507, Thermo Fisher) cells were used. Both cell lines were cultured at 5% CO2 at 37 °C in Roswell Park Memorial Institute GlutaMAX-I supplemented with 10% fetal bovine serum, 180 units ml^−1 penicillin, and 45 g ml^−1 streptomycin. For the cAMP and binding experiments, cells were transfected with the calcium phosphate precipitation method[49]. The polyethyleneimine (PEI) transfection method was used for the β-arrestin 2 recruitment assays[50], endosomal signalling and basal receptor localization assays, while the lipofectamine transfection method was used for the internalization assay.
(§2) cAMP production was measured with the DiscoverX Hithunter cAMP assay according to the manufacturer’s protocol (DiscoverX). […] On the day of the assay, the cells were washed twice with HEPES-buffered saline (HBS) and incubated with HBS and 1 mM 3-isobutyl-1-methylxanthine for 30 min at 37 °C. […] After a 3-h incubation on a shaking table in the dark, the cAMP accumulation was measured based on luminescence with a Perkin Elmer EnVision 2104 Multilabel Microplate Reader. […]

[2] = tested on: SNAP-GIPR Y73H; details: HEK293A
[3] = tested on: SNAP-GIPR A185V; details: HEK293A
[4] = tested on: SNAP-GIPR P195R; details: HEK293A
[5] = tested on: GIPR variants (groups); assay: β-arrestin 2 recruitment (BRET); details: for In vitro groups (β-arrestin): arr part of the in vitro group; for Beta, Barr: in vitro β-arrestin recruitment per GIPR variant;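 as to all read-outs here: BRET readout of β-arrestin 2 recruitment in transiently transfected HEK293 cells expressing WT GIPR or a GIPR variant plus GPCR kinase 2, Rluc8 donor and citrine acceptor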
[6] = tested on: GIPR variants (groups); assay: cAMP accumulation; assay type: cell-based, human; details: for In vitro groups (cAMP): cAMP part of the in vitro group; for percentage_camp: cAMP production compared with WT; for Beta, cAMP: in vitro cAMP production per GIPR variant
Procedure: as §1
cAMP production was measured with the DiscoverX Hithunter cAMP assay according to the manufacturer’s protocol (DiscoverX). […] On the day of the assay, the cells were washed twice with HEPES-buffered saline (HBS) and incubated with HBS and 1 mM 3-isobutyl-1-methylxanthine for 30 min at 37 °C. […] After the incubation, the assay medium was removed from the plate and the cells were washed with 30 µl PBS and treated with 40 µl enzyme donor–lysis buffer–chemiluminescent reagents and 10 µl cAMP antibodies for 60 min before 40 µl enzyme acceptor solution added. After a 3-h incubation on a shaking table in the dark, the cAMP accumulation was measured based on luminescence with a Perkin Elmer EnVision 2104 Multilabel Microplate Reader.
For cAMP accumulation, the data were fitted as a sigmoidal curve with a Hill slope of 1; for homologous competition binding, the data were fitted as a sigmoidal curve with a Hill slope of −1.

[7] = tested on: SNAP-GIPR A150T; details: HEK293A
[8] = tested on: WT GIPR; details: cited from earlier work
[9] = tested on: SNAP-GIPR V99I; details: HEK293A
[10] = tested on: GIPR variants (groups)
Procedure: This prompted us to further assess the role of β-arrestin for GIPR signalling by investigating the endosomal signalling in representative GIPR variants from each of the six in vitro-based groups.
At 48 h post-transfection, cells were washed with HBSS and subsequently maintained in 80 µl HBSS. […] Light emission at 515/20 nm (acceptor; rGFP) and 400/70 nm (donor; Rluc8) was measured using a Tecan Spark multimode microplate reader (Männedorf).

[11] = tested on: GIPR variants (groups); remark: listed apart in the source
Procedure: Binding experiments were performed simultaneously with the same transiently transfected HEK293 cells used for the cAMP experiments to enable the correlation of receptor expression with signalling between assays. In brief, 1 day before the assay, the transfected cells were seeded in a clear 96-well plate. […] On the assay day, the cells were washed twice with 4 °C binding buffer (50 mM HEPES buffer (pH 7.2), 1 mM CaCl2, 5 mM MgCl2 and 0.5% (wt/vol) bovine serum albumin) and incubated for 15 minutes at 4 °C. […] After incubation, the cells were washed in ice-cold binding buffer and lysed with 200 mmol l^−1 NaOH with 1% sodium dodecyl sulphate for 30 min. The gamma radiation was measured with a 2470 Wizard2 Automatic Gamma Counter.
To obtain Emax, EC50, Bmax, Kd and IC50 values, we analysed the data with the non-linear regression curve fitting program GraphPad Prism Software 9 (GraphPad).
The Bmax was calculated according to the following equation[51]: Bmax=B0×IC50/[L] in which B0 represents the total specific binding and [L] is the ligand concentration. The equilibrium dissociation constant (Kd) was obtained with the equation[51]: Kd=IC50−[L]

[12] = tested on: SNAP-GIPR M67R; details: HEK293A
[13] = tested on: SNAP-GIPR A207V; details: HEK293A
[14] = tested on: SNAP-WT GIPR; details: HEK293A
[15] = tested on: GIPR W90Lfs*17; details: GIPR W90Lfs* (ECD), mean, n = 5, duplicate
Procedure: HEK293 (CRL-1573, American Type Culture Collection) and β-arrestin 1/2 knockout cells, generated from HEK293A[48], were used for cAMP measurement, homologues competition binding and β-arrestin 2 recruitment. […] Both cell lines were cultured at 5% CO2 at 37 °C in Roswell Park Memorial Institute GlutaMAX-I supplemented with 10% fetal bovine serum, 180 units ml^−1 penicillin, and 45 g ml^−1 streptomycin. […] The polyethyleneimine (PEI) transfection method was used for the β-arrestin 2 recruitment assays[50], endosomal signalling and basal receptor localization assays, while the lipofectamine transfection method was used for the internalization assay.
Measurement of β-arrestin 2 recruitment was performed with a BRET assay. Two days before the assay, the HEK293 cells were transiently transfected with either WT GIPR or the GIPR variants together with the donor Rluc8-Arrestin-3-Sp1, the acceptor mem-linker-citrine-SH3 and the GPCR kinase 2 to facilitate β-arrestin 2 recruitment. On assay day, the cells were washed with PBS and resuspended in PBS supplemented with 5 mmol l^−1 glucose. Subsequently, 85 µl of the cell suspension was transferred to a white 96-well plate and 10 µl of 50 µM coelenterazine-h was added.

[16] = tested on: SNAP-GIPR T116R; details: HEK293A
[17] = tested on: GIPR variants (groups); remark: listed apart in the source
[18] = target: T1, GIPR S64P (Homo sapiens, UniProt P48546, S64P); assay: cAMP accumulation; assay type: cell-based
T1 construct: host or cells: HEK293
T1 sequence (P48546 22-466 S64P): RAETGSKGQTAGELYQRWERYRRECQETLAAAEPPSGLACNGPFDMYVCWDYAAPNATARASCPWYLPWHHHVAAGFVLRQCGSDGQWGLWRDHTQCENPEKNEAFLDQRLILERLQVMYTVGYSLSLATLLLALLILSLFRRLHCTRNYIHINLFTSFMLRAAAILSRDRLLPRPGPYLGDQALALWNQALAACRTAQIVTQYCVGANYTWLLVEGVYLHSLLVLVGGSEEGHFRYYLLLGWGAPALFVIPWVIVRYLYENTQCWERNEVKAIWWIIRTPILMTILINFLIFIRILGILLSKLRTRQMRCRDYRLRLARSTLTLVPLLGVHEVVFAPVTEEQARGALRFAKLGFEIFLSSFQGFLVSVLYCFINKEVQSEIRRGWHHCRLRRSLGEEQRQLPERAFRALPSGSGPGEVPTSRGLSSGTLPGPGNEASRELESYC
Procedure: (§3) HEK293 (CRL-1573, American Type Culture Collection) and β-arrestin 1/2 knockout cells, generated from HEK293A[48], were used for cAMP measurement, homologues competition binding and β-arrestin 2 recruitment. […] Both cell lines were cultured at 5% CO2 at 37 °C in Roswell Park Memorial Institute GlutaMAX-I supplemented with 10% fetal bovine serum, 180 units ml^−1 penicillin, and 45 g ml^−1 streptomycin. For the cAMP and binding experiments, cells were transfected with the calcium phosphate precipitation method[49].
(§4) cAMP production was measured with the DiscoverX Hithunter cAMP assay according to the manufacturer’s protocol (DiscoverX). […] On the day of the assay, the cells were washed twice with HEPES-buffered saline (HBS) and incubated with HBS and 1 mM 3-isobutyl-1-methylxanthine for 30 min at 37 °C. […] After the incubation, the assay medium was removed from the plate and the cells were washed with 30 µl PBS and treated with 40 µl enzyme donor–lysis buffer–chemiluminescent reagents and 10 µl cAMP antibodies for 60 min before 40 µl enzyme acceptor solution added. After a 3-h incubation on a shaking table in the dark, the cAMP accumulation was measured based on luminescence with a Perkin Elmer EnVision 2104 Multilabel Microplate Reader. […]

[19] = target: T2, GIPR V99I (Homo sapiens, UniProt P48546, V99I); assay: cAMP accumulation; assay type: cell-based
T2 construct: host or cells: HEK293
T2 sequence (P48546 22-466 V99I): T1 sequence (P48546 22-466 S64P) with P43S, V78I
Procedure: as §1, §2

[20] = target: T3, GIPR M67R (Homo sapiens, UniProt P48546, M67R); assay: cAMP accumulation; assay type: cell-based
T3 construct: host or cells: HEK293
T3 sequence (P48546 22-466 M67R): T1 sequence (P48546 22-466 S64P) with P43S, M46R
Procedure: as §3, §4

[21] = target: T4, GIPR Y73H (Homo sapiens, UniProt P48546, Y73H); assay: cAMP accumulation; assay type: cell-based
T4 construct: host or cells: HEK293
T4 sequence (P48546 22-466 Y73H): T1 sequence (P48546 22-466 S64P) with P43S, Y52H
Procedure: as §3, §4

[22] = M67R, Y73H, V99I, T116R, A150T, A185V, P195R and A207V
[23] = R12Q, L13F, R38L, A294V, I299V, E354Q, S415I, E418K, G449A and E463Q
[24] = T25R, R43G, R164Q, H166Y, I221M and K397N

Molecule: glucose-dependent insulinotropic polypeptide [GIP]
cAMP (Emax) [1]: 11 % of WT GIPR activity
Emax (Dose-response), internalization ([2]; GIP 1 nM–1 µM, 37 °C, n = 4): 101 % of maximal SNAP-WT GIPR inte
LogEC50 (Dose-response), internalization ([2]; Hill slope 1.0, n = 4): -7.4
Emax (Dose-response), internalization ([3]; GIP 1 nM–1 µM, 37 °C, n = 4): 89 % of maximal SNAP-WT GIPR inte
LogEC50 (Dose-response), internalization ([3]; Hill slope 1.0, n = 4): -7.5
Emax (Dose-response), internalization ([4]; GIP 1 nM–1 µM, 37 °C, n = 4): 77 % of maximal SNAP-WT GIPR inte
LogEC50 (Dose-response), internalization ([4]; Hill slope 1.0, n = 4): -7.2
β-arrestin recruitment ([5]; 21 of the 29 variants with impaired cAMP production (LoFcAMP/LoFarr)): impaired β-arrestin recruitment
β-arrestin recruitment class [5, 22]: WT-like
β-arrestin recruitment class [5, 23]: WT-like
β-arrestin recruitment ([5]; R190Q and E288G): impaired cAMP signalling and β-arrestin recruitment
β-arrestin recruitment class [5, 24]: low β-arrestin recruitment
β-arrestin 2 recruitment potency ([5]; most of 47 variants, apart from a few lacking recruitment): no major differences in potency
cAMP signalling activity at 100 pM GIP ([6]; 29 partial and complete LoF variants, 100 pM GIP): < 50 % of WT
cAMP production class [6, 22]: LoF (defined as <50% activity in either pathway)
cAMP production class [6, 23]: WT-like
cAMP production at higher GIP doses ([6]; R183Q, R190Q and R300W, higher GIP doses): cAMP production was restored
cAMP signalling ([6]; R190Q and E288G): impaired cAMP signalling
cAMP production class [6, 24]: maintained cAMP production
cAMP signalling at 100 pM GIP ([6]; T116R, R183Q, R190Q and R300W, 100 pM GIP): no cAMP signalling
Emax (Dose-response), internalization ([7]; GIP 1 nM–1 µM, 37 °C, n = 4): 98 % of maximal SNAP-WT GIPR inte
LogEC50 (Dose-response), internalization ([7]; Hill slope 1.0, n = 4): -7.6
β-arrestin isoform recruitment [8]: predominantly recruits β-arrestin 2 over β-arrestin 1
Emax (Dose-response), internalization ([9]; GIP 1 nM–1 µM, 37 °C, n = 4): 92 % of maximal SNAP-WT GIPR inte
LogEC50 (Dose-response), internalization ([9]; Hill slope 1.0, n = 4): -6.9
Endosomal signalling ([10]; variants that retained β-arrestin recruitment): effectively recruited mGs to early endosomes
Endosomal signalling ([10]; variants with diminished β-arrestin recruitment): minimal to no signalling from early endosomes
GIP binding ([11]; R190Q and E288G): maintained GIP binding
GIP binding ([11]; S64P, C84Pfs*70, R101H, Y258Sfs*50 and Q400Gfs*56): undetectable GIP binding
Binding capacity of GIP (Bmax) ([11]; all 29 LoF variants): impaired
Emax (Dose-response), internalization ([12]; GIP 1 nM–1 µM, 37 °C, n = 4): 98 % of maximal SNAP-WT GIPR inte
LogEC50 (Dose-response), internalization ([12]; Hill slope 1.0, n = 4): -6.6
Emax (Dose-response), internalization ([13]; GIP 1 nM–1 µM, 37 °C, n = 4): 98 % of maximal SNAP-WT GIPR inte
LogEC50 (Dose-response), internalization ([13]; Hill slope 1.0, n = 4): -7.6
Emax (Dose-response), internalization ([14]; GIP 1 nM–1 µM, 37 °C, n = 4): 100 % of maximal SNAP-WT GIPR inte
LogEC50 (Dose-response), internalization ([14]; Hill slope 1.0, n = 4): -7.5
logEC50 (Arrestin) ([15]; Hill slope 1.0): -10.8
Arrestin (Emax) ([15]; normalized to WT GIPR): 15
Emax (Dose-response), internalization ([16]; GIP 1 nM–1 µM, 37 °C, n = 4): 93 % of maximal SNAP-WT GIPR inte
LogEC50 (Dose-response), internalization ([16]; Hill slope 1.0, n = 4): -7.6
Level of internalization ([17]; M67R, V99I and P195R): slightly diminished internalization
Internalization ([17]; R190Q and E288G (LoFcAMP/LoFarr)): did not internalize
Level of internalization ([17]; Y73H, T116R, A150T, A185V and A207V): nearly identical levels of internalization as the WT GIPR
Internalization ([17]; all eight LoFcAMP/WT-likearr variants): preserved internalization capabilities

Efficacy at 100pmol (cAMP) [18]: 0
B1: S64P (protein)
chain: T1 sequence (P48546 22-466 S64P)
In vitro groups (β-arrestin) [5]: LoF_arr
Beta, Barr [5]: 0
In vitro groups (cAMP) [6]: LoF_camp
percentage_camp [6]: <50% cAMP
Beta, cAMP [6]: 0

Efficacy at 100pmol (cAMP) [19]: 0.04155
B2: V99I (protein)
chain: T1 sequence (P48546 22-466 S64P) with P43S, V78I
In vitro groups (β-arrestin) [5]: WT-like_arr
Beta, Barr [5]: 0.6225
In vitro groups (cAMP) [6]: LoF_camp
percentage_camp [6]: <50% cAMP
Beta, cAMP [6]: 0.04155

Efficacy at 100pmol (cAMP) [20]: 0.1344
B3: M67R (protein)
chain: T1 sequence (P48546 22-466 S64P) with P43S, M46R
In vitro groups (β-arrestin) [5]: WT-like_arr
Beta, Barr [5]: 1.452
In vitro groups (cAMP) [6]: LoF_camp
percentage_camp [6]: <50% cAMP
Beta, cAMP [6]: 0.1344

Efficacy at 100pmol (cAMP) [21]: 0.06277
B4: Y73H (protein)
chain: T1 sequence (P48546 22-466 S64P) with P43S, Y52H
In vitro groups (β-arrestin) [5]: WT-like_arr
Beta, Barr [5]: 1.323
In vitro groups (cAMP) [6]: LoF_camp
percentage_camp [6]: <50% cAMP
Beta, cAMP [6]: 0.06277
